Test results taken from patent US20110212040A1, “STABILIZED SUNSCREEN COMPOSITIONS” (priority 2010, published 2011).
“Also recorded” adds a separate entry of the source. One block for each compound: values may come before it.

Tests used:
Assay type in all cases: physicochemical
[1] = Stabilization of avobenzone in presence of single carotenoids; details: for protective activity vs avobenzone degradation: lycopene 1.6 mg/mL in squalane
Protocol: (§1) Key elements for this test are: consistent irradiation (known and consistent light source and positioning of samples with respect to the light source); optimal exposure of the sample to UV light (thin but consistent layer sample, in a flat vessel with no high walls which could screen out UV light); consistent sampling (especially recovery of irradiated material for analysis). Under the instant method, irradiation takes place in the Innova 4340 incubator, fitted with UV tubes (UVC: Osram Puritec-HNS3OVG13-G30T8/OF; UVB: Voltarc E312/F30T8; UVA: Sylvania F30T8/350BL)—allowing for intense, known, reproducible and even irradiation (a known illuminant is the single source of light—a wide light source and the incubator's metallic walls also help achieve even illumination). Samples are exposed in Brand plastic vial caps made of polyethylene, 26 mm diameter, 5 mm wall height, 400 μL sample volume, in triplicates, generally introduced as solutions in suitable oil carriers)—enabling irradiation of a relatively even and thin layer while allowing consistent sample recovery.
(§2) Analysis of the avobenzone content of the samples was done by UV spectroscopy (absorption @ 350 nm for avobenzone; sample dilution ×400 in hexanes). As phytofluene absorbs in the UV range relevant to our measure of avobenzone, blank TCLC samples (i.e. without avobenzone) were irradiated in parallel with test samples and absorption @ 350 nm was measured before and after irradiation. This absorption was deducted from the avobenzone absorption data, producing the corrected data shown here (unless noted otherwise).
Based on the above results, degradation of avobenzone was next measured in the presence of single carotenoids, specifically: phytoene (PE), phytofluene (PF), zeta-carotene (ZC) and Lycopene (LY).
Carotenoids levels: for the purposes of these experiments, phytoene was tested at 1.3 mg/mL; phytofluene was tested at 0.3 mg/mL; zeta-carotene and lycopene were tested at 1.6 mg/mL.
Irradiation was carried out with combined UVA+UVB (4:2, 18 h) and UVA+UVB+UVC (3:2:1, 10 h).

[2] = UV absorbance spectra / absorption maximum; details: FIG. 10
[3] = Effect of phytoene/phytofluene levels and ratio variations on avobenzone stabilization; details: combined UVA+UVB+UVC 10 h; low 0.3 mg/mL, high 1.3 mg/mL; listed as PE
Protocol: as §1, with “Samples are exposed in Brand plastic vial caps made of polyethylene, 26 mm diameter, 5 mm wall height, 400 μL sample volume, in triplicates, generally introduced as solutions in suitable oil carriers)—enabling irradiation of a relatively even and thin layer while allowing consistent sample recovery.” left out
as §2, with “This absorption was deducted from the avobenzone absorption data, producing the corrected data shown here (unless noted otherwise).” left out

[4] = 3% avobenzone cream, in vitro SPF/UVA-PF and photo stability (Colipa 2009); details: UVA dose 10 J/cm^2, Suntest
Protocol: Following the convincing results from the studies described above, a preliminary study with a basic cream containing 3% avobenzone labelled 703-1, to which phytoene and phytofluene (0.0075%), was added and labelled 703-2, was conducted to determine the contribution of phytofluene to sun protection and photo stability of avobenzone under UVA following the Colipa 2009 in vitro Standard Guidelines. Approximately 1.7 mg/cm^2 of each composition is applied to 5 PMMA plates (Helioplates-HD-6, Helioscreen®, Source: Labsphere, North Sutton, N.H.), respectively, and allowed to equilibrate for at least 15 minutes. Absorbance spectra from 5 locations on each plate are measured using a UV2000 Sunscreen Analyzer (Labsphere, North Sutton, N.H.). […] Plate temperatures are 25-35° C. Mean UVA protection factors at each UV dose are then computed for each test product, using Colipa UVA Protection Factor Test Method Spreadsheet, and mean absorbance spectra from 290 to 400 nm is obtained.

protective activity vs avobenzone degradation ([1]; combined UVA+UVB 4:2, 18 h): slight protective activity | protective activity vs avobenzone degradation ([1]; combined UVA+UVB+UVC 3:2:1, 10 h): no significant activity
SMILES: CC(C)=CCC/C(C)=C/C=C/C(C)=C/C=C/C(C)=C/C=C/C=C(C)/C=C/C=C(C)/C=C/C=C(\C)CCC=C(C)C [Lycopene]

stabilizing / protective effect on avobenzone ([1]; UVA+UVB (18 h) and UVA+UVB+UVC (10 h), not distinguished, phytoene 1.3, phytofluene 0.3, zeta-carotene 1.6 mg/mL): some protective activity
SMILES: CC(C)=CCC/C(C)=C/CC/C(C)=C/C=C/C(C)=C/C=C/C=C(C)/C=C/C=C(\C)CC/C=C(\C)CCC=C(C)C [Zeta-carotene, zeta-carotene]

λmax of absorbance spectra [2]: 286 nm
SMILES: CC(C)=CCC/C(C)=C/CC/C(C)=C/CC/C(C)=C/C=C/C=C(\C)CC/C=C(\C)CC/C=C(\C)CCC=C(C)C [phytoene]
protective activity vs degradation of avobenzone [3]: level-dependent; also recorded: roughly comparable activities

λmax of absorbance spectra [2]: 348 nm
SMILES: CC(C)=CCC/C(C)=C/CC/C(C)=C/C=C/C(C)=C/C=C/C=C(\C)CC/C=C(\C)CC/C=C(\C)CCC=C(C)C [phytofluene]
boost to UVA-PF [4]: addition to UVA-Pf
